Assay results as given in patent US8039668B2, “Naphthalene-based inhibitors of anti-apoptotic proteins” (Burnham Institute for Medical Research, priority 2008, dated 2011).
Read-outs that look alike come from different tables or passages of the source.

Columns and labels:
[1] = Liver microsomal stability; format: in vitro ADME, rat; conditions: for Microsomal Stability (T = 1 h): Table 6, rat liver microsomes
Description: Liver Microsomal Stability.

BCL-XL [2] = target: T1, BCL-XL (Homo sapiens, UniProt Q07817); assay: 1D 1H-NMR binding assay; parameters: key to 1D-^1H NMR: +++, Very Active; ++, Active; +, Mild; −, Weak; conditions: for 1D-^1H NMR: BCL-XL 25 μM, compound 200 μM; for 1D ^1H-NMR Binding Assay (BCL-XL): Table 9
Method: By observing the aliphatic region of the spectra, binding could be readily detected due to chemical shift changes in active site methyl groups of Ile, Leu, Thr, Val or Ala (region between −0.8 and 0.3 ppm). All experiments were performed with a 600 MHz spectrometer Bruker Avance 600 equipped with four rf channels and z-axis pulse-field gradients.
Target sequence in this assay (Q07817 whole entry): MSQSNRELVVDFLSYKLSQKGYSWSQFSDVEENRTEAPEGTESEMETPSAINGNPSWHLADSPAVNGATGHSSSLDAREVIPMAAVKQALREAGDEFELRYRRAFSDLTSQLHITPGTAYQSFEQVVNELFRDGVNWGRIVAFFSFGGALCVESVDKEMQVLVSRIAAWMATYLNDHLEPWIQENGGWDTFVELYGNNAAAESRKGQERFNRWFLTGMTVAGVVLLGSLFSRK

BCL-XL [3] = target: T1, BCL-XL; assay: Competitive fluorescence polarization assay (FPA), Bak BH3 peptide; format: binding; parameters: 100 nM GST-BCL-XL ΔTM protein
Method: For competitive binding assays, 100 nM GST-BCL-XL ΔTM protein was preincubated with the tested compound at varying concentrations in 47.5 μL PBS (pH=7.4) in 96-well black plates at room temperature for 10 min, then 2.5 μL of 100 nM FITC-labeled Bak BH3 peptide was added to produce a final volume of 50 μL. The wild-type and mutant Bak BH3 peptides were included in each assay plate as positive and negative controls, respectively. […] IC50 was determined by fitting the experimental data to a sigmoidal dose-response nonlinear regression model (SigmaPlot 10.0.1, Systat Software, Inc., San Jose, Calif., USA). Data reported are mean of three independent experiments±standard error (SE). […] Fluorescence polarization was measured after 10 min.
Target sequence in this assay (Q07817 1-209 limits assumed): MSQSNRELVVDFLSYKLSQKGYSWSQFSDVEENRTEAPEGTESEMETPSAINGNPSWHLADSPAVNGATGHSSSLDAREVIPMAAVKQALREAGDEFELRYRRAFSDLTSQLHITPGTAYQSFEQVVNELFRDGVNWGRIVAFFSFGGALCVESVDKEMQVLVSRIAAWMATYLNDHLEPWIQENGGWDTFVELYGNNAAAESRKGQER

B6Bcl-2 transgenic mice = conditions: for Tox: Bcl-2 transgenic mouse, single ip injection 72 μmol/kg; for percentage of maximum reduction in spleen weight (maximal biological activity) / spleen weight reduction: single ip 72 μmol/kg; for percentage of maximum reduction in spleen weight (maximal biological activity): maximum shrinkage no more than 50%; for spleen weight reduction: single mouse
Method: Transgenic mice expressing BCL-2 have been described as the B6 line. The BCL-2 transgene res a minigene version of a t(14;18) translocation in which the human BCL-2 gene is fused with the immunoglobulin heavy-chain (IgH) locus and associated IgH enhancer. The transgene was propagated on the Balb/c background.
After 24 hours, B6BCL2 mice were sacrificed by intraperitoneal injection of lethal dose of Avertin. Spleen was removed and weighed. […] Spleen tissue was fixed in z-FIX for 3 days and rinsed in PBS, and saved for histological analysis of spleen (H&E staining and TUNEL assay).

PC3ML cells = assay: Cell viability, ATP-LITE assay; format: cell-based, human; conditions: Homo sapiens, PC3-ML
In short: (§1)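 Human cancer lines were seeded at 2000 (H460, H1299), 3000 (PC3) or 10,000 (RS11846) cells/well in F12 or RPMI1640 with 5% FBS. Compounds were added in 0.1% DMSO 24 h after seeding. Viability was read by ATP-LITE luminescence after 72 h and normalized to DMSO controls.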

H1299 cell line = assay: Cell viability, ATP-LITE assay; format: cell-based, human; conditions: Homo sapiens
In short: as §1

[4] = system: Bax/Bak double knockout mouse embryonic fibroblast cells (MEF/DKO); assay: FITC-Annexin V/PI cytotoxicity in Bax/Bak double knockout cells; format: cell-based; conditions: 10 μM
Method: MEF/WT and MEF/DKO cells were seeded in 24-well plate at a seeding density of half a million per well (in 1 ml of DMEM medium supplemented by 10% FCS). […] On the following day, floating cells were pooled with adherent cells harvested after brief incubation with 0.25% Trypsin/EDTA solution (Gibco/In-Vitrogen Inc.). Cells were centrifuged and supernatant was discarded, and cell pellet was re-suspended with 0.2 ml of Annexin-V binding buffer, followed by addition of 1 μl Annexin-FITC and 1 μl PI (propidium iodide). The percentage of viable cells was determined by a 3-color FACSort instrument and data analyzed by Flow-Jo program, scoring Annexin V-negative, PI-negative as viable cells.

[5] = system: BP3 human B-cell lymphoma cell line; assay: Annexin V-FITC and propidium iodide assay; format: cell-based; conditions: Homo sapiens, B-cell, read-out: EC50 BP3
Bcl-2 = Bcl-2 (Homo sapiens, UniProt P10415); assay: Competitive fluorescence polarization assay (FPA), Bim BH3 peptide; format: binding
Bcl-2, sequence (P10415 whole entry): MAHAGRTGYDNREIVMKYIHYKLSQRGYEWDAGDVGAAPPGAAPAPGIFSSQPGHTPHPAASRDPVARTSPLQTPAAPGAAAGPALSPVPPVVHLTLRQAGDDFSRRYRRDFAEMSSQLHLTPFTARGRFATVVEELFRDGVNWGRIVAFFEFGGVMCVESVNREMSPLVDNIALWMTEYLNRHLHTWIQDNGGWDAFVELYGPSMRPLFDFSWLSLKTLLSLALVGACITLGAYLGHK

Mcl-1 = Mcl-1 (Homo sapiens, UniProt Q07820); assay: as above; format: binding
Mcl-1, sequence (Q07820 whole entry): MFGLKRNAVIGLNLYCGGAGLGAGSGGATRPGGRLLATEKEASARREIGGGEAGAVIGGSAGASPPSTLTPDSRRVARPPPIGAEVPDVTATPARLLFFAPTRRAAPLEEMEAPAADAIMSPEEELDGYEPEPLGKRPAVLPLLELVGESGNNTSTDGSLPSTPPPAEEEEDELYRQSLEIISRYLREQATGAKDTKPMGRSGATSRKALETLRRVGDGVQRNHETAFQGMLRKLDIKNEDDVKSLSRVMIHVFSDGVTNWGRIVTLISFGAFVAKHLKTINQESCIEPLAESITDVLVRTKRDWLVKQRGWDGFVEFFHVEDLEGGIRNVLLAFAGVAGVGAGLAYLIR

[6] = system: H460 human lung cell line; assay: Cell viability, ATP-LITE assay; format: cell-based; conditions: Homo sapiens
In short: as §1

[7] = system: human lymphoma RS11846 cell line; assay: Apoptosis, Annexin V-FITC and propidium iodide assay; format: cell-based; conditions: Homo sapiens
BCL-XL [8] = target: T1, BCL-XL; assay: Isothermal titration calorimetry (ITC); format: binding
Method: Titrations were performed using a VP-ITC or ITC200 calorimeter from Microcal (Northampton, Mass.). BCL-XL was used at concentrations between 25 and 100 μM in 20 mM sodium phosphate buffer (pH 7.4) and 5-10% DMSO. Titrants were used at concentrations 10-15 fold of that of the protein in the same buffer. Titrations were carried out at 25° C. Data were analyzed using Microcal Origin software provided by the ITC manufacturer (Microcal, Northampton, Mass.).
Target sequence in this assay (Q07817 whole entry): as the sequence (Q07817 whole entry) above

Bfl-1 = target: T2, Bfl-1 (Homo sapiens, UniProt Q16548); assay: Competitive fluorescence polarization assay (FPA); format: binding
T2 sequence (Q16548 1-175): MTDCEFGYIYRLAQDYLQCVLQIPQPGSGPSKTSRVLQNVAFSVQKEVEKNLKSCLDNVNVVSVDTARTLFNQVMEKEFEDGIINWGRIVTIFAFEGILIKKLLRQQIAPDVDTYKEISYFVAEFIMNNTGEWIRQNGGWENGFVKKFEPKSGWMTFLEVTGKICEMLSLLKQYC

Plasma stability = format: in vitro ADME, rat; conditions: for Plasma stability (T = 1 h): Table 6, rat plasma
Method: Plasma Stability. A 20 μL aliquot of a 10 mM solution in DMSO of the test compound was added to 2.0 mL of heparinized rat plasma (Lampire, P1-150N) to obtain a 100 μM final solution. The mixture was incubated for 1 h at 37.5° C. Aliquots of 100 μL were taken (0, 30 min, 1 h) and diluted with 200 μL of MeOH containing internal standard.

[9] = PAMPA cell membrane permeability; format: in vitro ADME; conditions: Table 11; Low/Medium, not defined
Description: PAMPA is parallel artificial membrane permeation assay.

RS11846 cell line = assay: Cell viability, ATP-LITE assay; format: cell-based; conditions: Homo sapiens, Table 9; read-out: RS11846 EC50 (ATP-LITE assay)
In short: as §1

[10] = Table 3, ATP-LITE assay, heading: EC50 PC3ML, read-out: EC50 PC3ML
[11] = NCI-H1299, heading: EC50 H1299, Table 3, ATP-LITE assay, read-out: EC50 H1299
[12] = Table 3, Annexin V-FITC and propidium iodide assay
[13] = NCI-H460, Table 3, ATP-LITE assay, read-out: EC50 H460
[14] = Table 3, Annexin V-FITC and propidium iodide assay, heading: EC50 RS11846, read-out: EC50 RS11846
[15] = Table 9, read-out: FPA IC50 (BCL-XL)
[16] = NCI-H1299, Table 9, read-out: H1299 EC50
[17] = NCI-H460, Table 9, read-out: H460 EC50
[18] = Table 9, read-out: RS11846 EC50 (Annexin V- and propidium iodide assay)
[19] = heading: EC50 BP3, Table 3, Annexin V-FITC and propidium iodide assay

1D ^1H-NMR Binding Assay (BCL-XL) (BCL-XL [2])	Cell Permeability [9]	SMILES	Microsomal Stability (T = 1 h) [1] [%]	1D-^1H NMR (BCL-XL [2]; Table 3)	IC50 (BCL-XL [3]; read-out: IC50 FPA Bcl-XL) [nM]	Tox (B6Bcl-2 transgenic mice)	EC50 (PC3ML cells; [10]) [nM]	EC50 (H1299 cell line; [11]) [nM]	MEF/DKO cells killed [4]	IC50 (Bcl-2) [nM]	IC50 (Mcl-1) [nM]	EC50 [6, 13] [nM]	EC50 [7, 14] [nM]	Kd (BCL-XL [8]) [nM]	IC50 (Bfl-1) [nM]	Plasma stability (T = 1 h) (Plasma stability) [%]	other results
		Cc1cc2c(C(=O)NCCc3cccc(Cl)c3)c(O)c(O)cc2c(O)c1-c1c(C)cc2c(C(=O)NCCc3cccc(Cl)c3)c(O)c(O)cc2c1O [Compound 8p, N^5,N^5′-bis(3-chlorophenethyl)-1,1′,6,6′,7,7′-hexahydroxy-3,3′-dimethyl-2,2′-binaphthyl-5,5′-dicarboxamide]	90	+++	6300	4+	3200	7800	20-35%	4400	3200	990	4600				percentage of maximum reduction in spleen weight (maximal biological activity) (B6Bcl-2 transgenic mice): 85-95%; spleen weight reduction (B6Bcl-2 transgenic mice): more than 40%; EC50 [5, 12]: 410 nM
		Cc1cc2c(CCc3ccccc3)c(O)c(O)cc2c(O)c1-c1c(C)cc2c(CCc3ccccc3)c(O)c(O)cc2c1O [Compound 12e, 3,3′-dimethyl-5,5′-diphenethyl-2,2′-binaphthyl-1,1′,6,6′,7,7′-hexaol]	89		3500	0			20-35%	480	830			410	5000	80	1D-^1H NMR (BCL-XL [2]; Table 4): +; signs of toxicity (B6Bcl-2 transgenic mice; 72 μmol/kg and even 120 μmol/kg): no significant signs of toxicity; EC50 (PC3ML cells; read-out: EC50 PC3ML, ATP-LITE assay): 2400 nM; EC50 (H1299 cell line; NCI-H1299, read-out: EC50 H1299): 580 nM; EC50 [5]: 4140 nM; EC50 ([6]; NCI-H460, read-out: EC50 H460): 920 nM; EC50 ([7]; read-out: EC50 RS11846, Annexin V-FITC and propidium iodide assay): 9800 nM
+	Low	Cc1cc2c(C(=O)c3cccc4ccccc34)c(O)c(O)cc2c(O)c1-c1c(C)cc2c(C(=O)c3cccc4ccccc34)c(O)c(O)cc2c1O [Compound VIII, (1,1′,6,6′,7,7′-hexahydroxy-3,3′-dimethyl-2,2′-binaphthyl-5,5′-diyl)bis(naphthalen-1-ylmethanone)]															IC50 (BCL-XL [3]; [15]): 160 nM; EC50 (PC3ML cells; Table 9, read-out: PC3ML EC50): 3000 nM; EC50 (H1299 cell line; [16]): 2400 nM; EC50 [6, 17]: 590 nM; EC50 (RS11846 cell line): 1800 nM; EC50 [7, 18]: 3000 to 5500 nM
		Cc1cc2c(C(=O)NC(C)c3ccc(Cl)cc3)c(O)c(O)cc2c(O)c1-c1c(C)cc2c(C(=O)NC(C)c3ccc(Cl)cc3)c(O)c(O)cc2c1O (stereo not drawn) [Compound 8k, N^5,N^5′-bis(1-(4-chlorophenyl)ethyl)-1,1′,6,6′,7,7′-hexahydroxy-3,3′-dimethyl-2,2′-binaphthyl-5,5′-dicarboxamide]	71	+++	270	4+	5000	3200	20-35%	490	230	500	5500	110	400	94	percentage of maximum reduction in spleen weight (maximal biological activity) (B6Bcl-2 transgenic mice): 85-95%; spleen weight reduction (B6Bcl-2 transgenic mice): more than 40%; EC50 [5, 19]: 1500 nM
		Cc1cc2c(C(=O)NC3Cc4ccccc4C3)c(O)c(O)cc2c(O)c1-c1c(C)cc2c(C(=O)NC3Cc4ccccc4C3)c(O)c(O)cc2c1O [Compound 8s, N^5,N^5′-bis(2,3-dihydro-1H-inden-2-yl)-1,1′,6,6′,7,7′-hexahydroxy-3,3′-dimethyl-2,2′-binaphthyl-5,5′-dicarboxamide]		++	850		3000	7100		700	350	940	4100		670		EC50 [5, 19]: 1100 nM
+	Low	Cc1cc2c(C(=O)C3CCCC3)c(O)c(O)cc2c(O)c1-c1c(C)cc2c(C(=O)C3CCCC3)c(O)c(O)cc2c1O [Compound VI, (1,1′,6,6′,7,7′-hexahydroxy-3,3′-dimethyl-2,2′-binaphthyl-5,5′-diyl)bis(cyclopentylmethanone)]															IC50 (BCL-XL [3]; [15]): 450 nM; EC50 (PC3ML cells; Table 9, read-out: PC3ML EC50): 3400 nM; EC50 (H1299 cell line; [16]): 3100 nM; EC50 [6, 17]: 1100 nM; EC50 (RS11846 cell line): 4000 nM; EC50 [7, 18]: 4500 nM
		Cc1cc2c(C(=O)NCC3CCCCC3)c(O)c(O)cc2c(O)c1-c1c(C)cc2c(C(=O)NCC3CCCCC3)c(O)c(O)cc2c1O [Compound 8m, N^5,N^5′-bis(cyclohexylmethyl)-1,1′,6,6′,7,7′-hexahydroxy-3,3′-dimethyl-2,2′-binaphthyl-5,5′-dicarboxamide]	90	+++	1100	4+	3700	4800	20-35%	710	780	410	4900	850	2000	89	degraded after 1 hour incubation in rat microsomal preparations ([1]; 1 hour): 10%; EC50 [5, 12]: 900 nM; degraded after 1 hour incubation in rat plasma (Plasma stability; 1 hour): 11%

SMILES	1D ^1H-NMR Binding Assay (BCL-XL) (BCL-XL [2])	Cell Permeability [9]	Microsomal Stability (T = 1 h) [1] [%]	1D-^1H NMR (BCL-XL [2]; Table 3)	IC50 (BCL-XL [3]; read-out: IC50 FPA Bcl-XL) [nM]	Tox (B6Bcl-2 transgenic mice)	EC50 (PC3ML cells; [10]) [nM]	EC50 (H1299 cell line; [11]) [nM]	MEF/DKO cells killed [4]	IC50 (Bcl-2) [nM]	IC50 (Mcl-1) [nM]	EC50 [6, 13] [nM]	EC50 [7, 14] [nM]	Kd (BCL-XL [8]) [nM]	IC50 (Bfl-1) [nM]	Plasma stability (T = 1 h) (Plasma stability) [%]	other results
Cc1cc2c(C(=O)C(C)(C)C)c(O)c(O)cc2c(O)c1-c1c(C)cc2c(C(=O)C(C)(C)C)c(O)c(O)cc2c1O [Compound XVIII, 1,1′-(1,1′,6,6′,7,7′-hexahydroxy-3,3′-dimethyl-2,2′-binaphthyl-5,5′-diyl)bis(2,2-dimethylpropan-1-one)]	++	Medium															EC50 ([7]; read-out: RS11846 EC50 (Annexin V- and propidium iodide assay), Table 9): 14700 nM
